Data published in US20100215594A1, “Tyrosinase Inhibitors” (priority 2007, published 2010).

Target: tyrosinase from fungi
Experiment: Tyrosinase assay (L-DOPA as substrate, optical density at 470 nm)
Format: biochemical
Conditions: tyrosinase from fungi (16U, Fluka), phosphate buffer pH 6.8, 10 min pre-incubation at 25° C., read-out: IC50 (concentration of the test compound at which 50% of the tyrosinase activity is inhibited)
Description: The action of the compounds I or Ia as skin lighteners is tested through their ability to inhibit the enzyme tyrosinase and thus to suppress melanin synthesis.
The inhibiting action of the compounds of the formula I or Ia against tyrosinase was assessed using tyrosinase from fungi and L-DOPA as substrate.
The compounds (1) and (2), as obtained in Example 1, and L-dopa are pre-incubated for 10 minutes at 25° C. in phosphate buffer (pH 6.8), and tyrosinase from fungi (16U) (Fluka) is subsequently added. The optical density of the samples is measured at 470 nm against a negative control (without active compound). Kojic acid and 4-hexylresorcinol are also tested as tyrosinase reference, i.e. positive control.
The results are shown in the following table, expressed in the IC50 value (the concentration of the test compound at which 50% of the tyrosinase activity is inhibited).

| SMILES | IC50 |
| --- | --- |
| CCCCCCc1ccc(O)cc1O [4-Hexylresorcinol] | 0.5 µM |
| CCCCCCc1ccc(OC(=O)C2CCC(=O)N2)cc1O (stereo not drawn) [(1), 4-Hexyl-3-hydroxyphenyl 2-pyrrolidinone-5-carboxylate] | 19 µM |
| O=c1cc(CO)occ1O [Kojic acid] | 12 µM |
